Assay results published in patent publication US10894777B2, “TG2 inhibitor piperazine compounds and uses thereof” (UNIVERSITY OF OTTAWA, priority 2016, dated 2021).
Values belong to the compound of their own block, whether it stands above or below them. Non-standard residues stand in square brackets, D forms with d. Residues, ends and D or L forms follow the SMILES beside them. *: point of attachment. DON = [N-]=[N+]=CC(=O)CC[C@H](N)C(=O)O; Cbz = O=C(OCc1ccccc1)*

Key:
TG2 [1] = target: T1, TG2 (Homo sapiens, UniProt P21980); test: In vitro GTP binding assay after inhibition of hTG2 (BODIPY GTP-γ-S); conditions: inhibitor 2×KI, 30 min; 3 μM GTP-γ-S FL BODIPY
T1 sequence (P21980 1-687): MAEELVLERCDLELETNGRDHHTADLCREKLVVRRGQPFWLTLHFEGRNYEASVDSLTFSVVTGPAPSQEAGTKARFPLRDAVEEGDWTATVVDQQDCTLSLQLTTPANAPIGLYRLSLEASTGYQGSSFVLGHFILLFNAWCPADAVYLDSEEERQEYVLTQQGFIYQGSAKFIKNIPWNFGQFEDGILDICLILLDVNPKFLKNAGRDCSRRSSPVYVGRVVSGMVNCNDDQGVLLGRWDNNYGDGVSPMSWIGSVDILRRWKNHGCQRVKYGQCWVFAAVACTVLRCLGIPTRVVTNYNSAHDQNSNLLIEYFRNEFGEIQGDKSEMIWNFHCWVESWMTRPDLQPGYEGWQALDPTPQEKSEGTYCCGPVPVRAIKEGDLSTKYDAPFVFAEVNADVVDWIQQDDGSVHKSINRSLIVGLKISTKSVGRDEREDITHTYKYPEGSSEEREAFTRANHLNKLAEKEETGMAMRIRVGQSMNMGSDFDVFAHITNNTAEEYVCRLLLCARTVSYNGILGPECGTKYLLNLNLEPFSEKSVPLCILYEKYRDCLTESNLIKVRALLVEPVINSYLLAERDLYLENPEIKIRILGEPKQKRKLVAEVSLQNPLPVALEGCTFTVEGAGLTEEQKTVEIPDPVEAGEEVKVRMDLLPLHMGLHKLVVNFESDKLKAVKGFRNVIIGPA
Procedure: In vitro GTP binding assay. GTP binding was measured using a method similar to that reported previously (McEwen, D. P. et al., Anal. Biochem. (2001), 291 (1): 109-117). […] The buffer was then exchanged to 100 mM MOPS (pH=7.0), 1 mM EGTA and 5 mM MgCl2 to remove calcium using a 10-kDa molecular weight cut off membrane. The fluorescent GTP analog was then added to give a final concentration of 3.0 μM and fluorescence was then measured on a microplate reader after 10 minutes of incubation (Ex/Em: 490/520 nm).

TG2 [2] = target: T1, TG2; test: Colorimetric transamidase activity assay (AL5 substrate), hTG2; assay type: biochemical; conditions: Table 7
Procedure: In Vitro Assays. Colorimetric transamidase activity assay. The activities of hTG1, hTG2 and hTG6 were measured via a colorimetric assay using the chromogenic substrate Cbz-Glu(γ-p-nitrophenyl ester)Gly (AL5). The assay was conducted at 25° C. in 100 mM MOPS buffer (pH 6.5) containing 3.0 mM CaCl2 and 50 μM EDTA. […] A stock solution of AL5 was prepared in DMSO such that the final concentration of this co-solvent was constant at 2.5% v/v. Stock solutions of the inhibitors were made in the buffer system previously described. The reaction was initiated with the addition of 40-60 mU/mL of the respective enzyme (0.10 μM hTG1, 0.25 μM hTG2 or 0.32 μM hTG6). Product formation was monitored at 405 nm in a polystyrene 96-well microplate using a BioTek Synergy 4 plate reader. […] Observed first-order rate constants of inactivation (kobs) were determined from non-linear regression fit to a mono-exponential model (Equation 1) of the observed absorbance of the enzymatic hydrolysis product, p-nitrophenolate (pNP). […] Experiments were done in triplicate and variation between repeats was less than 30%.

TG2 [3] = target: T1, TG2; test: Kinetic inactivation of purified recombinant human TG2, continuous spectrophotometric activity assay (Examples 3, 10); assay type: biochemical; set-up: made in house; conditions: Table 4
Procedure: Kinetic studies were carried out in vitro, using purified recombinant human TG2 (Roy, I. et al., Protein Expr. Purif. 87: 41-46, 2013) and a direct, continuous spectrophotometric activity assay (Leblanc, A. et al., Biochemistry 40: 8335-8342, 2001).
Kinetics. Kinetic runs were performed at 25° C. in 100 mM MOPS buffer (pH 7.0) containing 3 mM CaCl2 and 50 μM EDTA. […] Stock solutions of the substrate and inhibitors were prepared in DMF such that the final concentration of this co-solvent was constant at 10% v/v. Reactions were initiated with the addition of enzyme with an activity of approximately 0.05 U/mL. Kinetic evaluation was carried out by the method of Stone and Hofsteenge (Stone, S. R. and Hofsteenge, J., Biochem. J. 230: 497-502, 1985). […] Observed first-order rate constants of inactivation were determined from non-linear regression, to a mono-exponential model. These rate constants were in turn fit to equation 1 by non-linear regression, providing the kinetic parameters
Kinetic parameters were determined as described above.

[4] = test system: TG2 fusion protein mCer-TG2-YFP; test: Fluorescence lifetime imaging (FLIM) of mCer-TG2-YFP conformation, SCC-13 cells; assay type: cell-based, human; conditions: 10 μM A23187, 24 h; control 2.94 ns
Procedure: We monitored the impact of each inhibitor on intracellular TG2 structure using FLIM (Fluorescence Lifetime Imaging Microscopy). FLIM is a quantitative method of assessing fluorescence lifetime that measures energy transfer between donor and accept probes Fluorescence lifetime is measured in nanoseconds and a short lifetime correlates with close contact between probes (FIG. 29B). An advantage of this method is that fluorescent lifetimes are independent of probe concentration. In the present experiments, we expressed in cells a TG2 fusion protein in which the donor probe (mCER) is fused to the N-terminus and the acceptor probe (YFP) at the C-terminus (FIG. 29B). mCER and YFP comprise an ideal donor/acceptor pair; the donor probe is excited by laser illumination and energy transfer to the acceptor is monitored. The fluorescent lifetime is shorter when TG2 is in the closed conformation which brings mCER and YFP close together. SCC-13 cells were electroporated with empty vector, mCER-TG2 or mCER-TG2-YFP.
Fluorescence lifetime imaging. Fluorescence lifetime images were acquired using FLIM system (Alba 5 from ISS). […] Emission was observed through bandpass filter 480/35 nm (Chroma Technology) and detected by a photomultiplier H7422-40 (Hamamatsu). FLIM data were acquired using time-domain modality (SPC-830 TCSPC module from Becker and Hickl GmbH). […] To account for intensity heterogeneity within single intensity images, two to five consecutive scans were acquired and summed to build FLIM intensity image for lifetime analysis. […] FLIM data were analyzed using VistaVision Suite software (Vista v.213 from ISS). Lifetime images were generated by fitting data using single exponential intensity decay model. Intensity threshold for lifetime analysis was set of at least 3-fold above the intensity of dim cells and fitting procedure was performed for binned pixels at level of 3 (7×7 pixels). Lifetime distribution within image is represented with histogram showing pixel frequency of specific lifetime. The average lifetime values with standard deviations were calculated based on all processed pixels in lifetime image. FRET values were calculated according to the formula ET=1−(τDA/τD), where τD is the lifetime of donor (mCer-TG2) and τDA is the lifetime of donor-acceptor pair (mCer-TG2—YFP).

SCC-13 cells = test: Spheroid formation / survival assay, SCC-13 cells (ECS cells); assay type: cell-based, human; conditions: for spheroid formation with kinase inhibitor: PF-573228 10 μM, 6 d
Procedure: Spheroid formation assay. Cells, maintained as monolayer cultures in growth medium consisting of DMEM (Invitrogen, Frederick, Md.) supplemented with 4.5 mg/ml D-glucose, […] L-glutamine, […] sodium pyruvate, and 5% fetal calf serum, were harvested, collected by centrifugation, and resuspended in spheroid medium comprising DMEM/F12 (1:1) (DMT-10-090-CV, Mediatech Inc., Manassas, Va.) supplemented with 2% B27 serum-free supplement (17504-044, Invitrogen, Frederick, Md.), 20 ng/ml EGF (E4269, Sigma, St. Louis, Mo.), 0.4% bovine serum albumin (B4287, Sigma) and 4 μg/ml insulin (19278 Sigma, St. Louis, Mo.). The cells (40,000) were plated in 9.6 cm^2 wells in Costar six well ultra-low attachment cluster dishes (4371, Corning, Tewksbury, Mass.). Spheroid size and number was monitored with time in culture as previously described (Adhikary, G. et al., PLoS One 8:e84324, 2013).
Spheroid formation assay. Spheroid formation assays were exactly as outlined previously (Adhikary, G. et al., PLoS ONE 8:e84324, 2013), except that the spheroids were grown in six well ultra-low attachment Costar cluster dishes (4371, Corning, Tewksbury, Mass.).
Spheroid formation assay. Spheroid formation assays were as reported previously (Adhikary, G. et al., PLoS One 8:e84324, 2013), except that the spheroids were grown in 6-well ultralow attachment Costar cluster dishes (Corning).

EGFR = conditions: cited from earlier work; for EGFR levels: U87, but not T98G cells, 24 hrs
[5] = test system: glioblastoma multiforme (GBM) cell lines; conditions: cited from earlier work
FAK kinase = FAK kinase (Homo sapiens, UniProt Q05397)
Chain of FAK kinase (Q05397 whole entry): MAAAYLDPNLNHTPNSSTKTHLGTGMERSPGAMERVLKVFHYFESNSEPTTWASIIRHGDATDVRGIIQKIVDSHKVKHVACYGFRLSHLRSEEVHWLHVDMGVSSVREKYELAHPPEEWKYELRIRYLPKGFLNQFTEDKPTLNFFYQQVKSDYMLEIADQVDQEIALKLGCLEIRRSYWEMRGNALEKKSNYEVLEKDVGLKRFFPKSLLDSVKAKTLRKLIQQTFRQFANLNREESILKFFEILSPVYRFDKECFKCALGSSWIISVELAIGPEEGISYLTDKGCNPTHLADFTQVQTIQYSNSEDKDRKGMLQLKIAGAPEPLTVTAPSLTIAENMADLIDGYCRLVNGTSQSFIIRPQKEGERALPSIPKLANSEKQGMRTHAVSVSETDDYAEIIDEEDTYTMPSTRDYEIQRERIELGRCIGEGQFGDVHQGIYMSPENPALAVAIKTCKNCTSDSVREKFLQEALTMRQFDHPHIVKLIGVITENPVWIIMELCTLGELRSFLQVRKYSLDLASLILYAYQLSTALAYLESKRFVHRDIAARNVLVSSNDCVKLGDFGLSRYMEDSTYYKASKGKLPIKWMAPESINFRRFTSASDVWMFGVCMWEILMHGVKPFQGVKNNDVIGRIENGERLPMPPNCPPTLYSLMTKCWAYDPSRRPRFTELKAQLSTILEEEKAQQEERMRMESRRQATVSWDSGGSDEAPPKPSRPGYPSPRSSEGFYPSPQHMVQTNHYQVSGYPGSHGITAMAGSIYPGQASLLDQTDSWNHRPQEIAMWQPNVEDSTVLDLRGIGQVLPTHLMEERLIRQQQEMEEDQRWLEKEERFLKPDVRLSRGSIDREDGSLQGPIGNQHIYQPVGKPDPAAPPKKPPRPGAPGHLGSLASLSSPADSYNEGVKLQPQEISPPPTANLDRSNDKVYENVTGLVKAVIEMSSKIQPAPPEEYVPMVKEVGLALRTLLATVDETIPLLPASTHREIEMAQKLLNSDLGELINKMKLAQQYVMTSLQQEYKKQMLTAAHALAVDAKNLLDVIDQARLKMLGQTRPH
Procedure: SCC-13 cells (40,000 per well) were grown in spheroid medium in attached (monolayer) or non-attached (spheroid, ECS cell). Cells were collected after 10 d and lysates were prepared for immunoblot. In (B), SCC-13 cells spheroid were grown for 8 d and extracts were immunoprecipitated as indicated prior to immunoblot. […] Cells were grown in spheroid medium in monolayer culture for 10 d prior to collection of lysates for immunoblot. […] In (J), (K), and (L), cells were double-electroporated with indicated siRNA and 24 h later plated for spheroid formation in the presence of the indicated inhibitor. […] The plotted values are mean±SEM and asterisks indicate significant change compared to control, n=3, p<0.005.
Immunoblot. Equivalent amounts of protein were electrophoresed on denaturing and reducing 10% polyacrylamide gels and transferred to nitrocellulose membrane. […] Secondary antibody binding was visualized using ECL Prime (Amersham) chemiluminescence detection technology.

ΔNp63α = ΔNp63α level immunoblot, YAP1-siRNA SCC-13 cells; assay type: cell-based, human; conditions: 1 μM lactacystin, 24 h
Procedure: In (A), cells were grown in spheroid medium in monolayer or spheroid culture and after 10 d harvested for immunoblot. In (B), SCC13-Control-shRNA and SCC13-TG2-shRNA2 cells were grown in monolayer culture in spheroid medium and lysates were collected for immunoblot detection of the indicated epitopes. […] In (F), SCC13-Control-shRNA and SCC13-TG2-shRNA2 cells were grown as monolayers in spheroid medium and lysates collected at 6 d for marker detection. In (G), SCC-13 cells were double-electroporated with Control- or TG2-siRNA and given 24 h to recover before being seeded on chamber slides. The following day, cells were fixed in 4% paraformaldehyde, stained with anti-YAP1 and appropriate secondary antibody, and co-stained with DAPI. In (H), SCC-13 cells, double-electroporated with Control- or TG2-siRNA, were grown in spheroid medium for 48 h prior to extracts being prepared for assay of ΔNp63α mRNA by qRT-PCR. In (I), SCC-13 cells were grown as spheroids and at day 8 lysates were collected for immunoprecipitation/immunoblot. In (J), SCC-13 cells were double-electroporated with Control- or YAP-siRNA followed by treatment with 1 μM lactacystin in monolayer culture. Extracts were prepared after an additional 24 h. In (K), SCC-13 cells were double-electroporated with Control- or YAPsiRNA and after 2 d in monolayer culture extracts were prepared for immunoblot. […]

Compound: C=CC(=O)NCCCC[C@H](NC(=O)OCc1ccccc1)C(=O)N1CCN(C(=O)c2cccc3ccccc23)CC1 [AA9, (S)-benzyl (1-(4-(1-naphthoyl)piperazin-1-yl)-6-acrylamido-1-oxohexan-2-yl)carbamate]
GTP binding of hTG2 after incubation with inhibitor (TG2 [1]): abolish GTP binding nearly completely

kinact (TG2 [2]; read-out: kinact (converted)): 0.00833 s⁻¹ | kinact/KI (TG2 [2]; read-out: kinact/KI (10^3M^−1 min^−1)): 912 M⁻¹ s⁻¹ | melting point: 48 to 49 °C | kinact (TG2 [3]): 0.0115 s⁻¹ | kinact/KI (TG2 [3]; read-out: kinact/Ki (μM^−1 min^−1), for ^a no saturation observed, efficiency obtained from initial slope): 2800 M⁻¹ s⁻¹
Compound: C=CC(=O)NCCCC[C@H](NC(=O)OCc1ccccc1)C(=O)N1CCN(S(=O)(=O)C(C)C)CC1 [Compound 133, (S)-benzyl(6-acrylamido-1-(4-(isopropylsulfonyl)piperazin-1-yl)-1-oxohexan-2-yl)carbamate]

Compound: CNc1ccc2oc(C[C@H]3O[C@@]4(CC[C@H]3C)O[C@H]([C@H](C)C(=O)c3ccc[nH]3)[C@H](C)C[C@H]4C)nc2c1C(=O)O [Compound A23187, reference compound]
fluorescence lifetime of mCer-TG2-YFP [4]: ~3.1 ns

Compound: NCCCCCNC(=S)Nc1ccc2c(c1)C(=O)OC21c2ccc(O)cc2Oc2cc(O)ccc21 [FC, fluorescein cadaverine, reference compound]
spheroid number, pre-formed spheroids (SCC-13 cells; spheroids grown for 8 days, then treated): reduced spheroid number

Compound: CN(C)c1cccc2c(S(=O)(=O)NCCCCCN)cccc12 [MDC, monodansylcadaverine]
EGFR levels (EGFR): reduced the levels of EGFR | EGFR phosphorylation in response to EGF (EGFR; U87 cells, 30 min pretreatment): greatly reduced the extent of EGFR phosphorylation | proliferation of GBM cell lines [5]: reduce proliferation in two out of three glioblastoma multiforme (GBM) cell lines tested

FAK kinase activity (FAK kinase): reduced FAK kinase activity
Compound: CS(=O)(=O)c1cccc(CNc2nc(Nc3ccc4c(c3)CCC(=O)N4)ncc2C(F)(F)F)c1 [PF-573228, reference compound]
spheroid formation with kinase inhibitor (SCC-13 cells): markedly reduced spheroid formation

Compound: CC(C)(C)n1nc(-c2ccc(Cl)cc2)c2c(N)ncnc21 [PP2, reference compound]
spheroid formation with kinase inhibitor (SCC-13 cells): suppressed spheroid formation

Compound: COC(=O)[C@H](CC(C)C)NC(=O)[C@@H]1CCCN1C(=O)[C@@H](NC(=O)[C@H](CCC(=O)C=[N+]=[N-])NC(=O)OCc1ccccc1)C(C)C [Z-DON] (Cbz-[DON]VPL-OMe)
EGFR levels (EGFR): reduced the levels of EGFR | proliferation of GBM cell lines [5]: reduce proliferation in two out of three glioblastoma multiforme (GBM) cell lines tested

Compound: CC(=O)N[C@@H](CSC(=O)[C@]1([C@@H](O)C(C)C)NC(=O)[C@H](C)[C@@H]1O)C(=O)O [lactacystin]
ΔNp63α reduction caused by YAP1-siRNA (ΔNp63α): partially reversed
